# Test results from patent US9200020B2, “6-oxopurine phosphoribosyltransferase inhibitors” (THE UNIVERSITY OF QUEENSLAND, priority 2012, dated 2015).
# Like-named read-outs stand apart in the source and are kept apart here.
# Legend:
# P. falciparum strain D6 = experiment: [3H]-hypoxanthine growth inhibition assay, P. falciparum D6; settings: Plasmodium falciparum; for IC50: D6, read-out: D6 IC50; for IC90: D6, read-out: D6 IC90
# PvHGPRT = PvHGPRT (Plasmodium vivax, UniProt A5K7E9); experiment: biochemical; settings: for Ki ratio (proto:phosphonatoethyl): PvHGPRT, decrease in Ki when N-H is replaced by phosphonoethyl
# Sequence of PvHGPRT (A5K7E9 1-233): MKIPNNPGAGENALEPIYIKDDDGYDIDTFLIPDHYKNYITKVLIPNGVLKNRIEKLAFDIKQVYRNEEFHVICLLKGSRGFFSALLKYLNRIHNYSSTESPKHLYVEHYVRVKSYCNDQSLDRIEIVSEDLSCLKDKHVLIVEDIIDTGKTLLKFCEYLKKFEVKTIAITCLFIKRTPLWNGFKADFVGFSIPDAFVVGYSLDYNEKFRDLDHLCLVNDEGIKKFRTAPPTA
# human HGPRT = human HGPRT (Homo sapiens (Human), UniProt P00492); experiment: Ki determination, spectrophotometric assay, human HGPRT; assay type: biochemical; settings: Ki(app), 25° C., pH 7.4, guanine 60 μM
# Sequence of human HGPRT (P00492 whole entry): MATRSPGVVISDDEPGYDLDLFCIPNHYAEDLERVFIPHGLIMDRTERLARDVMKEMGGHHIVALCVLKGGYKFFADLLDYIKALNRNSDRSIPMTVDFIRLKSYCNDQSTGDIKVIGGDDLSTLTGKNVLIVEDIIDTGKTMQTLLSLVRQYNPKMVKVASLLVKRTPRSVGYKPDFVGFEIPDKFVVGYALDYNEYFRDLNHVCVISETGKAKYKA
# PfHGXPRT = PfHGXPRT (Plasmodium falciparum (isolate FCR-3 / Gambia), UniProt P20035); experiment: biochemical; assay type: biochemical
# E. coli XGPRT = E. coli XGPRT (Escherichia coli (strain K12), UniProt P0A9M5); experiment: Ki values with E. coli XGPRT; settings: read-out: Ki (μM) XGPRT
# P. falciparum strain W2 = experiment: [3H]-hypoxanthine growth inhibition assay, P. falciparum W2; settings: Plasmodium falciparum; for IC50: W2, read-out: W2 IC50; for IC90: W2, read-out: W2 IC90
# [1] = system: M. tuberculosis H37Ra (ATCC 25177); experiment: Resazurin reduction microplate assay, M. tuberculosis; settings: five days at 37° C., resazurin fluorescence
# [2] = Ki(app), 25° C., pH 7.4, guanine 60 μM, read-out: Ki Pv
# [3] = Ki(app), 25° C., pH 7.4, guanine 60 μM, read-out: Ki Pf
smiles,measurement,setting,value
N#CCCN(CCn1cnc2c(=O)[nH]c(N)nc21)CCP(=O)(O)O [Compound 11],IC50,P. falciparum strain D6,~145 µM
"Nc1nc2c(ncn2CCN(CCP(=O)(O)O)CCP(=O)(O)O)c(=O)[nH]1 [Example 11, 9-[(N,N-(Bis-2-phosphonoethyl))-2-aminoethyl]guanine]",Ki ratio (proto:phosphonatoethyl),PvHGPRT,12-fold
"O=c1[nH]cnc2c1ncn2CCN(CCO)CCP(=O)(O)O [Example 24, 9-[(N-(2-Hydroxyethyl)-N-(2-phosphonoethyl))-2-aminoethyl]hypoxanthine]",Ki,human HGPRT,5.5 ± 0.4 µM
same,Ki,PvHGPRT; [2],21 ± 3 µM
same,Ki,PfHGXPRT; [3],2.6 ± 0.4 µM
"O=C(O)CN(CCn1cnc2c(=O)[nH]cnc21)CCP(=O)(O)O [Example 21, 9-[(N-(Carboxymethyl)-N-(2-phosphonoethyl))-2-aminoethyl]hypoxanthine]",Ki,PfHGXPRT,0.6 ± 0.06 µM
"Nc1nc2c(ncn2CCOCCP(=O)(O)O)c(=O)[nH]1 [PEEG, 2-(Phosphonoethoxy)ethyl guanine, reference compound]",Ki,human HGPRT,1 ± 0.5 µM
same,Ki,PfHGXPRT; [3],0.1 ± 0.02 µM
"O=C(O)CCCN(CCn1cnc2c(=O)[nH]cnc21)CCP(=O)(O)O [Example 23, 9-[(N-(Carboxypropyl)-N-(2-phosphonoethyl))-2-aminoethyl]hypoxanthine]",Ki,PfHGXPRT,≥ 210 µM
"N#CCN(CCn1cnc2c(=O)[nH]cnc21)CCP(=O)(O)O [Example 18, 9-[(N-(2-Cyanomethyl)-N-(2-phosphonoethyl))-2-aminoethyl]hypoxanthine]",Ki,human HGPRT,35 µM
same,Ki,PvHGPRT; [2],47 ± 5 µM
same,Ki,PfHGXPRT; [3],≥ 250 µM
"O=c1[nH]cnc2c1ncn2CCN(CCP(=O)(O)O)CCP(=O)(O)O [Example 25, 9-[(N,N-(Bis-2-phosphonoethyl))-2-aminoethyl]hypoxanthine]",Ki ratio (proto:phosphonatoethyl),PvHGPRT,>20-fold
same,Ki,PfHGXPRT,0.4 ± 0.1 µM
"CCOC(=O)CN(CCn1cnc2c(=O)[nH]cnc21)CCP(=O)(O)O [Example 15, 9-[(N-(2-Ethoxy-2-oxoethyl)-N-(2-phosphonoethyl))-2-aminoethyl]hypoxanthine]",Ki,human HGPRT,2.6 ± 0.5 µM
same,Ki,PvHGPRT; [2],11 ± 1 µM
same,Ki,PfHGXPRT; [3],1.9 ± 0.4 µM
"N#CCCN(CCn1cnc2c(=O)[nH]cnc21)CCP(=O)(O)O [Example 19, 9-[(N-(2-Cyanoethyl)-N-(2-phosphonoethyl))-2-aminoethyl]hypoxanthine]",Ki,human HGPRT,2.4 ± 0.2 µM
same,Ki,PvHGPRT; [2],0.7 ± 0.06 µM
same,Ki,PfHGXPRT; [3],0.2 ± 0.05 µM
"COC(=O)CCN(CCn1cnc2c(=O)[nH]cnc21)CCP(=O)(O)O [Example 16, 9-[(N-(3-Methoxy-3-oxopropyl)-N-(2-phosphonoethyl))-2-aminoethyl]hypoxanthine]",Ki,human HGPRT,≥ 200 µM
same,Ki,PvHGPRT; [2],21 ± 2 µM
same,Ki,PfHGXPRT; [3],0.1 ± 0.03 µM
Nc1nc2c(ncn2CCN(CCOCP(=O)(O)O)CCP(=O)(O)O)c(=O)[nH]1 [Compound 1],Ki,E. coli XGPRT,0.4 µM
Nc1nc2c(ncn2CCN(CCP(=O)(O)O)CP(=O)(O)O)c(=O)[nH]1 [Compound 2],Ki,E. coli XGPRT,27 µM
CCCOC(=O)[C@H](Cc1ccccc1)NP(=O)(CCN(CCC#N)CCn1cnc2c(=O)[nH]cnc21)N[C@@H](Cc1ccccc1)C(=O)OCCC [Compound 14],IC50,P. falciparum strain D6,12.3 ± 1.6 µM
same,IC90,P. falciparum strain D6,18.7 ± 1.7 µM
same,IC50,P. falciparum strain W2,19.3 ± 7.5 µM
same,IC90,P. falciparum strain W2,48 ± 13.6 µM
N#CCCN(CCn1cnc2c(=O)[nH]cnc21)CCP(=O)(O)O [Compound 12],IC50,P. falciparum strain D6,6.4 ± 0.9 µM
same,IC90,P. falciparum strain D6,10.2 ± 1.6 µM
same,IC50,P. falciparum strain W2,10.4 ± 2 µM
same,IC90,P. falciparum strain W2,21.2 ± 1 µM
COC(=O)CCN(CCn1cnc2c(=O)[nH]c(N)nc21)CCP(=O)(O)O [Compound 8],IC50,P. falciparum strain D6,3.5 ± 1 µM
same,IC90,P. falciparum strain D6,8.6 ± 1.4 µM
same,IC50,P. falciparum strain W2,2.9 ± 1.1 µM
same,IC90,P. falciparum strain W2,15.9 ± 4.5 µM
CCCOC(=O)[C@H](Cc1ccccc1)NP(=O)(CCN(CCC#N)CCn1cnc2c(=O)[nH]c(N)nc21)N[C@@H](Cc1ccccc1)C(=O)OCCC [Compound 13],IC50,P. falciparum strain D6,75 µM
same,IC90,P. falciparum strain D6,215 µM
"COC(=O)CCCN(CCn1cnc2c(=O)[nH]cnc21)CCP(=O)(O)O [Example 17, 9-[(N-(4-Methoxy-4-oxobutyl)-N-(2-phosphonoethyl))-2-aminoethyl] hypoxanthine]",Ki,human HGPRT,22 ± 3 µM
same,Ki,PvHGPRT; [2],≥ 250 µM
same,Ki,PfHGXPRT; [3],≥ 220 µM
"CC(C#N)CN(CCn1cnc2c(=O)[nH]cnc21)CCP(=O)(O)O (stereo not shown) [Example 20, 9-[(N-(2-Cyanopropyl)-N-(2-phosphonoethyl))-2-aminoethyl]hypoxanthine]",Ki,human HGPRT,29 ± 2 µM
same,Ki,PvHGPRT; [2],≥ 230 µM
same,Ki,PfHGXPRT; [3],6 ± 0.06 µM
"COC(=O)CCCN(CCn1cnc2c(=O)[nH]c(N)nc21)CCP(=O)(O)O [Example 3, 9-[(N-(4-Methoxy-4-oxobutyl)-N-(2-phosphonoethyl))-2-aminoethyl]guanine]",Ki,PvHGPRT; Ki Pv,≥ 200 µM
"O=c1[nH]cnc2c1ncn2CCOCCP(=O)(O)O [PEEHx, 2-(phosphonoethoxy)ethyl hypoxanthine, reference compound]",Ki,human HGPRT,3.6 ± 0.2 µM
same,Ki,PfHGXPRT; [3],0.3 ± 0.04 µM
CCOC(=O)[C@H](Cc1ccccc1)NP(=O)(CCN(CCCC#N)CCn1cnc2c(=O)[nH]cnc21)N[C@@H](Cc1ccccc1)C(=O)OCC [Compound 6],IC50,P. falciparum strain D6,4.2 ± 1.4 µM
same,IC90,P. falciparum strain D6,10.6 ± 1.8 µM
same,IC50,P. falciparum strain W2,5.5 ± 1.6 µM
same,IC90,P. falciparum strain W2,16.1 ± 0.1 µM
"O=C(O)CCN(CCn1cnc2c(=O)[nH]cnc21)CCP(=O)(O)O [Example 22, 9-[(N-(2-Carboxyethyl)-N-(2-phosphonoethyl))-2-aminoethyl]hypoxanthine]",Ki,human HGPRT,≥ 240 µM
same,Ki,PvHGPRT; [2],41 ± 5 µM
same,Ki,PfHGXPRT; [3],0.4 ± 0.03 µM
"O=c1[nH]cnc2c1ncn2CCNCCP(=O)(O)O [Example 26, 9-[(N-(2-Phosphonoethyl))-2-aminoethyl]hypoxanthine]",Ki,human HGPRT,40 ± 2 µM
same,Ki,PvHGPRT; [2],≥ 250 µM
same,Ki,PfHGXPRT,≥ 200 µM
N#CCCCN(CCn1cnc2c(=O)[nH]c(N)nc21)CCP(=O)(O)O [Compound 4],IC50,P. falciparum strain D6,8.6 ± 1.5 µM
same,IC90,P. falciparum strain D6,24.5 ± 3.5 µM
same,IC50,P. falciparum strain W2,5.7 ± 3.9 µM
same,IC90,P. falciparum strain W2,32.5 ± 3.5 µM
CCOC(=O)[C@H](Cc1ccccc1)NP(=O)(CCN(CCC(=O)OC)CCn1cnc2c(=O)[nH]c(N)nc21)N[C@@H](Cc1ccccc1)C(=O)OCC [Compound 10],IC50,P. falciparum strain D6,11.8 ± 1.6 µM
same,IC90,P. falciparum strain D6,30 ± 2.9 µM
same,IC50,P. falciparum strain W2,5.6 ± 1.8 µM
same,IC90,P. falciparum strain W2,37.5 ± 3.5 µM
CCOC(=O)[C@H](Cc1ccccc1)NP(=O)(CCN(CCCC#N)CCn1cnc2c(=O)[nH]cnc21)N[C@@H](Cc1ccccc1)C(=O)OCC [drawing 83],IC50,[1],60 µM
"Nc1nc2c(ncn2CCNCCP(=O)(O)O)c(=O)[nH]1 [Example 12, 9-[(N-(2-Phosphonoethyl))-2-aminoethyl]guanine]",Ki,human HGPRT,3 ± 0.6 µM
same,Ki,PvHGPRT; [2],11 ± 0.6 µM
same,Ki,PfHGXPRT; [3],16 ± 1 µM
